Source: patent publication US20230190870A1, “Method for Treating Lysosomal Storage Diseases with Histatin Peptides” (THE BOARD OF TRUSTEES OF THE UNIVERSITY OF ILLINOIS, priority 2020, published 2023)
Square brackets hold non-standard residues; d marks the D form. Peptide text beside a SMILES is read from it. pS = N[C@@H](COP(=O)(O)O)C(=O)O

Key:
[1] = tested on: NPC1 (I1061T mutant) homozygous patient fibroblasts; assay: Cellular calcium in NPC1 (I1061T mutant) patient fibroblasts; assay type: cell-based, human
[2] = cyclization of histatin-1; cited from earlier work
[3] = biological target: T1, Synthetic TMEM97 (108-143) (Homo sapiens, UniProt Q5BJF2); assay: Surface plasmon resonance, immobilized synthetic TMEM97 (108-143); assay type: binding; conditions: SPR
T1 construct: made in house; host or cells: chemical solid-phase synthesis (Fmoc, Wang resin)
T1 sequence (Q5BJF2 108-143 limits assumed): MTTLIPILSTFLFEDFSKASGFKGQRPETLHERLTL
Experimental: (§1) Surface Plasmon Resonance (SPR). Recombinant full-length TMEM97 (also called MAC30, from HEK293 cells) and GST-TMEM97 (108-176, recombinant GST-C terminal from wheat germ) proteins were purchased from OriGene (Rockville, Md.) and Abnova (Taipei City, Taiwan), respectively. Three peptides, TMEM97 (108-176), TMEM97 (108-143) and TMEM97 (144-176), were synthesized. All proteins and peptides were initially prepared in HBS buffer containing 10 mM HEPES, pH 7.4, 150 mM NaCl, and 0.05% surfactant P20. The CM5 sensor surface was first activated by 1-ethyl-3-(3-dimethylaminopropyl) carbodiimide hydrochloride (EDC)/N-hydroxy succinimide (NHS) mixture using a Biacore T200 or Biacore 8K instrument (GE Healthcare). […] Flow channels 1 and 3 were used as references.
(§2) The three synthesized peptides were diluted to 50 μg/mL in 10 mM sodium acetate at pH 4.0 and immobilized to flow channels 2, 3 and 4, respectively, on another sensor chip. The unmodified surfaces on a flow channel 1 were used as a reference control. Histatin solutions with a series of increasing concentrations (0.78-25 μM at 2-fold dilution) were applied to all four channels at a 30 μL/minute flow rate at 25° C. The data were double-referenced with reference channel and zero concentration responses, and reference subtracted sensorgrams were fitted with 1 to 1 Langmuir kinetic model using a Biacore T200 evaluation software V3.0 or Insight evaluation software. The equilibrium dissociation constants ([…]) were determined from two rate constants (KD=kd/ka).
(§3) To determine more precisely which segment of TMEM97 is necessary for binding of Hst1, multiple synthetic fragments of TMEM97 were generated (Table 6) and binding to Hst1 was tested using SPR. […] Smaller fragments of the C-terminal of TMEM97 were then constructed to represent the (predicted) luminal (108-143) and cytoplasmic (144-176) exposed segments of the C-terminus of TMEM97 based on modeling experiments previously described. […] SPR results for Hst1 were confirmed using ITC as an orthogonal analytical method.
(§4) To determine the region(s) of Hst1 that mediate binding to TMEM97, SPR testing was performed with various Hst1 fragments and either recombinant TMEM97 (GST-tagged, wheat-germ derived, C-terminal fragment TMEM97 (108-176)) or synthesized TMEM97 (TMEM97 (108-176), TMEM97 (108-143) and TMEM97 (144-176)).

[4] = biological target: T2, Synthetic TMEM97 (144-176) (Homo sapiens, UniProt Q5BJF2); assay: Surface plasmon resonance, immobilized synthetic TMEM97 (144-176); assay type: binding; conditions: SPR
T2 construct: made in house; host or cells: chemical solid-phase synthesis (Fmoc, Wang resin)
T2 sequence (Q5BJF2 144-176): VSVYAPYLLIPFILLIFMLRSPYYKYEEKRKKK
Experimental: as §1, §2, §3, §4

[5] = biological target: T3, TMEM97 (S2R) containing HEK293T membranes (Homo sapiens, UniProt Q5BJF2); assay: Radioligand binding/competition assay with [3H]-DTG (UNC PDSP); conditions: secondary radioligand binding assay; hot ligand [3H]-DTG
T3 construct: expressed in transfected cells; host or cells: HEK293T (transient overexpression; membranes prepared by UNC PDSP)

NPC1 KD cells [6] = assay: LC3 immunolocalization in NPC1 KD cells (autophagy); assay type: cell-based; conditions: 20 μM or 50 μM
Text: Autophagy. NPC1-deficiency results in increased autophagy as evidenced by elevated microtubule-associated protein 1 light chain 3 (LC3) levels, numerous autophagic vacuoles and enhanced degradation of long-lived proteins (Pacheco, et al. (2007) Human Mol. Genet. 16(12):1495-1503).

NPC1 KD cells [7] = assay: Filipin staining of cholesterol in NPC1 knockdown cells; assay type: cell-based; conditions: 20 μM or 50 μM
Text: Cholesterol. […] Filipin staining, the generally accepted tool for detection of cholesterol deposits in NPC cells (Vanier, et al. (2003) Clin. Genet. 64:269-81), was used to visualize cholesterol in control and NPC1 KD cells. This analysis indicated increased clustering and collection of filipin-stained cholesterol in NPC1 KD cells, consistent with the NPC1 phenotype.

GST-TMEM97 (108-176) = biological target: T4, GST-TMEM97 (108-176) (Homo sapiens, UniProt Q5BJF2); assay: Surface plasmon resonance, immobilized GST-TMEM97 (108-176); assay type: binding; conditions: for % Rmax: SPR
T4 construct: GST-TMEM97 (108-176, recombinant GST-C terminal from wheat germ); purchased Abnova (Taipei City, Taiwan); host or cells: wheat germ (cell-free)
T4 sequence (Q5BJF2 108-176): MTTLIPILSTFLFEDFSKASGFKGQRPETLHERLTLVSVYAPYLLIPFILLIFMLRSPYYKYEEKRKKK
Experimental: as §1, §2, §4

CC(C)C[C@H](NC(=O)[C@H](Cc1ccc(O)cc1)NC(=O)[C@H](CC(N)=O)NC(=O)[C@H](CO)NC(=O)CNC(=O)[C@H](Cc1ccc(O)cc1)NC(=O)[C@H](CC(=O)O)NC(=O)CNC(=O)[C@H](Cc1ccc(O)cc1)NC(=O)[C@H](Cc1ccccc1)NC(=O)[C@@H]1CCCN1C(=O)[C@H](Cc1ccccc1)NC(=O)[C@H](CCC(=O)O)NC(=O)[C@H](CCCNC(=N)N)NC(=O)[C@H](Cc1c[nH]cn1)NC(=O)[C@H](CO)NC(=O)[C@H](Cc1c[nH]cn1)NC(=O)[C@H](Cc1c[nH]cn1)NC(=O)[C@H](CCCCN)NC(=O)[C@H](CCC(=O)O)NC(=O)[C@H](Cc1c[nH]cn1)NC(=O)[C@H](Cc1ccccc1)NC(=O)[C@H](CCCCN)NC(=O)[C@H](CCCNC(=N)N)NC(=O)[C@H](CCCNC(=N)N)NC(=O)[C@H](Cc1ccc(O)cc1)NC(=O)CNC(=O)[C@H](Cc1c[nH]cn1)NC(=O)[C@H](Cc1c[nH]cn1)NC(=O)[C@H](CCCNC(=N)N)NC(=O)[C@H](CCCCN)NC(=O)[C@H](CCC(=O)O)NC(=O)[C@H](Cc1c[nH]cn1)NC(=O)[C@H](COP(=O)(O)O)NC(=O)[C@@H](N)CC(=O)O)C(=O)N[C@@H](Cc1ccc(O)cc1)C(=O)N[C@@H](CC(=O)O)C(=O)N[C@@H](CC(N)=O)C(=O)O [Hst1] (H-D[pS]HEKRHHGYRRKFHEKHHSHREFPFYGDYGSNYLYDN-OH; N-terminus and C-terminus assumed)
cellular calcium levels [1]: increased cellular calcium levels | potentiation of molar activity by cyclization [2]: approximately 1000 fold | KD / binding [3]: unable to bind | KD / binding ([3]; listed as Hst1(1-38)): No binding | % Rmax [4]: 21% | Kd [4]: 2400 nM | % Rmax ([4]; listed as Hst1(1-38)): (% Rmax = 22%) | Ki [5]: 239 nM | LC3 levels (NPC1 KD cells [6]): dose-dependent reduction in LC3 levels | cholesterol accumulation (Filipin staining) (NPC1 KD cells [7]): reduced cholesterol accumulation | % Rmax (GST-TMEM97 (108-176)): 43% | % Rmax (GST-TMEM97 (108-176); listed as Hst1(1-38)): (% Rmax = 23%) | effect of added DTG or haloperidol on Hst1 binding (GST-TMEM97 (108-176); addition of either DTG or haloperidol): did not affect
